Where two headings read alike, the source gives them in different places.
Legend:
FLT3 kinase = target: T1, FLT3 kinase (Homo sapiens, UniProt P36888); experiment: FLT3 kinase assay (AlphaScreen); format: biochemical; settings: read-out: Ranking of IC50 values, FLT3
T1 construct: purchased SignalChem
T1 sequence (P36888 27-993): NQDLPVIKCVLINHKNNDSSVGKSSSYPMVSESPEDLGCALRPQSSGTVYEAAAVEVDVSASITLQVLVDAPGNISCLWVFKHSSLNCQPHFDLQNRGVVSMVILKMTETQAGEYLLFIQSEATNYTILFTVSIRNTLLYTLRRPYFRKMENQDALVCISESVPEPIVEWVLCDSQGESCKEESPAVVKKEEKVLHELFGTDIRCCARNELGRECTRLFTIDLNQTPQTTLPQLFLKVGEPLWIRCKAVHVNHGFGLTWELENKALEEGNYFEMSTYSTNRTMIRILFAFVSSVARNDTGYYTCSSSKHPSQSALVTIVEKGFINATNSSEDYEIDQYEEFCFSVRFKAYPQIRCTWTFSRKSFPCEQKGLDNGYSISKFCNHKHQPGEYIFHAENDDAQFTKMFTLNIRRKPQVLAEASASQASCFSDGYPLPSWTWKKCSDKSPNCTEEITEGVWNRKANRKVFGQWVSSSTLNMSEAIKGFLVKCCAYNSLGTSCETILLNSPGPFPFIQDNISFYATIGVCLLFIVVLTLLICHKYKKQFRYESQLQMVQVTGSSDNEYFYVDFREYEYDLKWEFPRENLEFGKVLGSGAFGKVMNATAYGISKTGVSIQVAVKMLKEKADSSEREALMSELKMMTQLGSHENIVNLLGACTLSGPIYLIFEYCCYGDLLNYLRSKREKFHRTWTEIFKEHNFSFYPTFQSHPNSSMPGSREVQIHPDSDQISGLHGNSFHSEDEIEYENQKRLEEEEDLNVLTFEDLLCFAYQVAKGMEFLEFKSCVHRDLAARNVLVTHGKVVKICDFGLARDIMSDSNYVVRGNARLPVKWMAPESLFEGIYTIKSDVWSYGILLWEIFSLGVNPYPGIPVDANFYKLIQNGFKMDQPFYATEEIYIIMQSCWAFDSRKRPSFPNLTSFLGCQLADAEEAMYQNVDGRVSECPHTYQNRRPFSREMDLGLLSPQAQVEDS
How it was run: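 AlphaScreen detection of biotin-poly(Glu4:Tyr1) phosphorylation by 1.5 ng recombinant FLT3 (10 μM ATP, pH 7.0 MOPS, 10 mM MgCl2; 30 °C, 30 min, EDTA quench). IC50 values derived from serially diluted compound tested in duplicate.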

[1] = system: HCC827 NSCLC cell with EGFR exon 19 deletion mutation; experiment: HCC827 cell proliferation assay (counter screen); format: cell-based, human; settings: HCC827 cells, 72 hours treatment, CellTiter96, read-out: anti-proliferation activity HCC827 EGFR Exon19 del, IC50 ranking
Procedure: Inhibitions of cell growths by compounds were measured using CellTiter™-96 assay. The cytotoxicities of compounds of the invention were evaluated in cell line panels with different signaling pathway dependencies, including MV4-11 human acute myeloid leukemia cell with FLT3-ITD mutation, Molm-14 human acute myeloid leukemia cell with FLT3-ITD mutation, THP-1 human acute monocytic leukemia cell with NRAS G12D mutation, A375 melanoma cell with BRAF V600E mutation, and HCC827 NSCLC cell with EGFR exon 19 deletion mutation.
HCC827 cells are non-small cell lung carcinoma (NSCLC) cells encoding EGFR exon 19 deletion mutation, which renders the cell growth dependent on EGFR signaling instead of class III RTKs signaling. HCC827 cells (catalog #CRL-2868) were obtained from the ATCC. Briefly, cells were cultured in RPMI1640 medium supplemented with 10% FBS and incubated at 37° C. in 5% CO2 atmosphere. Cells were allowed to expand until reaching saturation, at which point they were sub-cultured or harvested for assay use.
MV4-11, Molm-14, THP-1, A375, and HCC827 cells were seeded into 96-well plates at 6500, 25000, 5000, 2000 and 8000 cells/well, respectively, and incubated at 37° C., 5% CO2 overnight. Then, these seeded cells were treated with increasing concentrations of the test compounds and incubated for another 72 hours. At the end of the incubation, CellTiter96® AQueous One Solution Reagent (Promega, […]) was added and incubated for the additional 2˜4 hours. Cell viability was determined by measuring absorbance at 490 nm using EMax® microplate reader (Molecular Devices, San Jose, CA, USA).

| IC50 (FLT3 kinase) [nM] | SMILES | IC50 ([1]; Homo sapiens) [nM] | IC50 [1] [nM] |
| --- | --- | --- | --- |
| < 1 | Cn1ncc2ccc(-c3n[nH]c4c3Cc3sc(-c5ccc(C(=O)N6CCOCC6)nc5)cc3-4)cc21 [Compound 23, (5-(3-(1-methyl-1H-indazol-6-yl)-1,4-dihydro-thieno[2′,3′:4,5]cyclopenta [1,2-c]pyrazol-6-yl)pyridin-2-yl)(morpholino) methanone] | > 10000 |  |
| < 1 | COc1cc(-c2cc3c(s2)Cc2c(-c4ccc5cnn(C)c5c4)n[nH]c2-3)ccc1CN1CCOCC1 [Compound 24, 4-(2-methoxy-4-(3-(1-methyl-1H-indazol-6-yl)-1,4-dihydrothieno[2′,3′:4,5]cyclopenta[1,2-c]pyrazol-6-yl)benzyl)morpholine] | > 10000 |  |
| 1 to 10 | Cn1ncc2ccc(-c3n[nH]c4c3Cc3sc(-c5ccc(CN6CCOCC6)c(F)c5)cc3-4)cc21 [Compound 25, 4-(2-fluoro-4-(3-(1-methyl-1H-indazol-6-yl)-1,4-dihydrothieno[2′,3′:4,5]cyclopenta[1,2-c]pyrazol-6-yl)benzyl)morpholine] | > 10000 |  |
| 1 to 10 | Cc1cc(-c2cc3c(s2)Cc2c(-c4ccc5cnn(C)c5c4)n[nH]c2-3)ccc1CN1CCOCC1 [Compound 26, 4-(2-methyl-4-(3-(1-methyl-1H-indazol-6-yl)-1,4-dihydrothieno[2′,3′:4,5]cyclopenta[1,2-c]pyrazol-6-yl)benzyl)morpholine] | > 10000 |  |
| 1 to 10 | Cn1ncc2ccc(-c3n[nH]c4c3Cc3sc(-c5ccc(CN6CCOCC6)c(C(F)(F)F)c5)cc3-4)cc21 [Compound 27, 4-(4-(3-(1-methyl-1H-indazol-6-yl)-1,4-dihydrothieno[2′,3′:4,5]cyclopenta[1,2-c]pyrazol-6-yl)-2-(trifluoromethyl)benzyl)morpholine] | > 10000 |  |
| 1 to 10 | CCC(c1ccc(-c2cc3c(s2)Cc2c(-c4ccc5cnn(C)c5c4)n[nH]c2-3)cc1)N1CCOCC1 (stereo not shown) [Compound 28, 4-(1-(4-(3-(1-methyl-1H-indazol-6-yl)-1,4-dihydro-thieno[2′,3′:4,5]cyclopenta [1,2-c]pyrazol-6-yl)phenyl)propyl)morpholine] | > 10000 |  |
| < 1 | COc1cc(CN2CCOCC2)ccc1-c1cc2c(s1)Cc1c(-c3ccc4cnn(C)c4c3)n[nH]c1-2 [Compound 29, 4-(3-methoxy-4-(3-(1-methyl-1H-indazol-6-yl)-1,4-dihydrothieno [2′,3′:4,5]cyclopenta[1,2-c]pyrazol-6-yl)benzyl) morpholine] | > 10000 |  |
| < 1 | Cn1ncc2ccc(-c3n[nH]c4c3Cc3sc(-c5cncc(C(=O)N6CCOCC6)c5)cc3-4)cc21 [Compound 31, (5-(3-(1-methyl-1H-indazol-6-yl)-1,4-dihydrothieno[2′,3′:4,5]cyclopenta[1,2-c]pyrazol-6-yl)pyridin-3-yl) (morpholino)methanone] | 1000 to 10000 |  |
| < 1 | Cn1ncc2ccc(-c3n[nH]c4c3Cc3sc(-c5ccc(CN6CCOCC6)cc5F)cc3-4)cc21 [Compound 32, 4-(3-fluoro-4-(3-(1-methyl-1H-indazol-6-yl)-1,4-dihydrothieno [2′,3′:4,5]cyclopenta [1,2-c]pyrazol-6-yl)benzyl)morpholine] | > 10000 |  |
| < 1 | Cc1ccc(-c2cc3c(s2)Cc2c(-c4ccc5cnn(C)c5c4)n[nH]c2-3)cn1 [Compound 33, 3-(1-methyl-1H-indazol-6-yl)-6-(6-methylpyridin-3-yl)-1,4-dihydrothieno [2′,3′:4,5]cyclopenta [1,2-c]pyrazole] |  | > 10000 |
| 1 to 10 | Cn1ncc2ccc(-c3n[nH]c4c3Cc3sc(-c5ccc(C(=O)N6CCCCC6)cc5)cc3-4)cc21 [Compound 34, (4-(3-(1-methyl-1H-indazol-6-yl)-1,4-dihydro-thieno[2′,3′:4,5]cyclopenta [1,2-c]pyrazol-6-yl)phenyl)(piperidin-1-yl) methanone] | > 10000 |  |
| 1 to 10 | CC(C)Cn1ncc2ccc(-c3n[nH]c4c3Cc3sc(-c5ccc(CN6CCOCC6)cc5)cc3-4)cc21 [Compound 35, 4-(4-(3-(1-isobutyl-1H-indazol-6-yl)-1,4-dihydro-thieno[2′,3′:4,5]cyclopenta [1,2-c]pyrazol-6-yl)benzyl)morpholine] | > 10000 |  |
| 1 to 10 | Cn1ncc2ccc(-c3n[nH]c4c3Cc3sc(-c5cccc(C(=O)N6CCOCC6)c5)cc3-4)cc21 [Compound 37, (3-(3-(1-methyl-1H-indazol-6-yl)-1,4-dihydro-thieno[2′,3′:4,5]cyclopenta [1,2-c]pyrazol-6-yl)phenyl)(morpholino) methanone] | > 10000 |  |
| 1 to 10 | Cn1ncc2ccc(-c3n[nH]c4c3Cc3sc(-c5ccc(C(=O)N6CCCC6)cc5)cc3-4)cc21 [Compound 38, (4-(3-(1-methyl-1H-indazol-6-yl)-1,4-dihydro-thieno[2′,3′:4,5]cyclopenta [1,2-c]pyrazol-6-yl)phenyl)(pyrrolidin-1-yl) methanone] | > 10000 |  |
| 1 to 10 | Cn1ncc2ccc(-c3n[nH]c4c3Cc3sc(-c5ccc(CN6CCSCC6)cc5)cc3-4)cc21 [Compound 39, 3-(1-methyl-1H-indazol-6-yl)-6-(4-(thiomorpho-linomethyl)phenyl)-1,4-dihydrothieno[2′,3′:4,5] cyclopenta[1,2-c]pyrazole] | > 10000 |  |
| < 1 | Cn1ncc2ccc(-c3n[nH]c4c3Cc3sc(-c5cnc(C(=O)N6CCOCC6)nc5)cc3-4)cc21 [Compound 41, (5-(3-(1-methyl-1H-indazol-6-yl)-1,4-dihydrothieno[2′,3′:4,5]cyclopenta[1,2-c]pyrazol-6-yl)pyrimidin-2-yl) (morpholino)methanone] | > 10000 |  |
| < 1 | CC(C)n1ncc2ccc(-c3n[nH]c4c3Cc3sc(-c5ccc(CN6CCOCC6)cc5)cc3-4)cc21 [Compound 42, 4-(4-(3-(1-isopropyl-1H-indazol-6-yl)-1,4-dihydro-thieno[2′,3′:4,5]cyclopenta [1,2-c]pyrazol-6-yl)benzyl)morpholine] | > 10000 |  |
| 1 to 10 | COc1cc(-c2cc3c(s2)Cc2c(-c4ccc5cnn(C)c5c4)n[nH]c2-3)ccc1C(=O)N1CCOCC1 [Compound 43, (2-methoxy-4-(3-(1-methyl-1H-indazol-6-yl)-1,4-dihydrothieno [2′,3′:4,5]cyclopenta [1,2-c]pyrazol-6-yl)phenyl)(morpholino) methanone] | > 10000 |  |
| < 1 | Cn1ncc2ccc(-c3n[nH]c4c3Cc3sc(-c5ccc(C(=O)N6CCOCC6)c(F)c5)cc3-4)cc21 [Compound 44, (2-fluoro-4-(3-(1-methyl-1H-indazol-6-yl)-1,4-dihydrothieno[2′,3′:4,5]cyclopenta[1,2-c]pyrazol-6-yl)phenyl)(morpholino) methanone] | > 10000 |  |
| < 1 | Cn1ncc2ccc(-c3n[nH]c4c3Cc3sc(-c5cnc(N)nc5)cc3-4)cc21 [Compound 45, 5-(3-(1-methyl-1H-indazol-6-yl)-1,4-dihydrothieno [2′,3′:4,5]cyclopenta[l,2-c]pyrazol-6-yl)pyrimidin-2-amine] | > 10000 |  |
